Among the data in PubChem BioAssay (NCI) are GI50 and TGI values, retold here.

Test systems include TK-10 renal; UACC-257 melanoma; OVCAR-5 ovarian; CAKI-1 renal; OVCAR-3 ovarian; SK-MEL-28 melanoma; SN12C renal; EKVX NSCLC; SNB-75 CNS; HL-60(TB) leukemia.
Assay in all cases: NCI anticancer screen, dose series, 48 h

Structures are written as SMILES.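 These data come from cells grown in 96-well plates and exposed to compound for 48 hours at five concentrations. GI50 is the concentration that inhibits growth by half. At the TGI there is no net growth.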 Where only a bound is given, the exact number is not on record here.

As to `CN(C)c1ccc(N=C(C#N)c2nc(N)nc(N3CCOCC3)n2)cc1`, the GI50 is 23 µM in the experiment with TK-10 renal; > 100 µM with UACC-257 melanoma; > 100 µM with OVCAR-5 ovarian; 39.9 µM in the experiment on CAKI-1 renal; 34.6 µM in the experiment with OVCAR-3 ovarian; 19.5 µM in the experiment with SK-MEL-28 melanoma. Further, the GI50 was 28.8 µM in the experiment with SN12C renal, > 100 µM in the experiment on EKVX NSCLC, 18.7 µM in the experiment with SNB-75 CNS and 70.4 µM with HL-60(TB) leukemia. In addition, the TGI was 63.6 µM in the experiment on TK-10 renal; > 100 µM in the experiment with UACC-257 melanoma; > 100 µM in the experiment with OVCAR-5 ovarian; > 100 µM in the experiment with CAKI-1 renal; > 100 µM in the experiment with OVCAR-3 ovarian; 48.4 µM in the experiment with SK-MEL-28 melanoma. Also, the TGI was 98.5 µM with SN12C renal, > 100 µM in the experiment on EKVX NSCLC, 49.4 µM in the experiment with SNB-75 CNS and > 100 µM in the experiment on HL-60(TB) leukemia.
For the compound `COC(=O)Oc1nn(C(=O)OC)c(=O)c2ccccc12` (tested in a mixture with another compound), the TGI with TK-10 renal, in the experiment with UACC-257 melanoma, in the experiment on OVCAR-5 ovarian, with CAKI-1 renal, with OVCAR-3 ovarian and in the experiment with SK-MEL-28 melanoma was > 100 µM in each case. Also, the TGI in the experiment with SN12C renal, in the experiment with EKVX NSCLC, in the experiment on SNB-75 CNS and in the experiment with HL-60(TB) leukemia was > 100 µM in each case.
For the compound `CC1(C)OCC(C2OC(On3nnc4ccc(Cl)cc43)C3OC(C)(C)OC23)O1` (configuration not stated), the TGI in the experiment on TK-10 renal, with UACC-257 melanoma, in the experiment on OVCAR-5 ovarian, in the experiment on CAKI-1 renal, in the experiment with OVCAR-3 ovarian and in the experiment with SK-MEL-28 melanoma was > 100 µM in each case. Besides, the TGI in the experiment with SN12C renal, in the experiment with EKVX NSCLC, in the experiment with SNB-75 CNS and with HL-60(TB) leukemia was > 100 µM each time.
For `COc1ccc(Nc2nc3c(N)cc(C(F)(F)F)cc3nc2-c2ccccc2)cc1`, the TGI in the experiment with TK-10 renal, in the experiment with UACC-257 melanoma, in the experiment on OVCAR-5 ovarian, with CAKI-1 renal, with OVCAR-3 ovarian and in the experiment on SK-MEL-28 melanoma was > 100 µM in each case. Also, the TGI in the experiment on SN12C renal is > 100 µM; in the experiment with EKVX NSCLC, > 100 µM; with SNB-75 CNS, 82.2 µM; in the experiment with HL-60(TB) leukemia it was > 100 µM.
For the compound `Cn1cc(-c2nonc2-c2cn(C)c3ccc(Br)cc23)c2ccccc21`, the GI50 was 5.33 µM with TK-10 renal; 7.05 µM with OVCAR-5 ovarian; 4.33 µM in the experiment with CAKI-1 renal; 2.8 µM in the experiment with OVCAR-3 ovarian; > 100 µM in the experiment on SK-MEL-28 melanoma; 5.25 µM in the experiment with SN12C renal. For the same compound, the GI50 in the experiment with EKVX NSCLC was 3.82 µM; with SNB-75 CNS it was 1.77 µM; in the experiment with HL-60(TB) leukemia, 2.95 µM. Moreover, the TGI in the experiment with TK-10 renal was > 100 µM; in the experiment on OVCAR-5 ovarian, > 100 µM; in the experiment with CAKI-1 renal, > 100 µM; with OVCAR-3 ovarian it was 8.61 µM; with SK-MEL-28 melanoma, > 100 µM; in the experiment with SN12C renal, > 100 µM. The TGI in the experiment on EKVX NSCLC is > 100 µM; in the experiment with SNB-75 CNS it was 7.71 µM; in the experiment with HL-60(TB) leukemia it was > 100 µM.
Take `CC1(C)CCC(CN2CCN(c3ccc(C(=O)NS(=O)(=O)c4ccc(NCC5CCOCC5)c([N+](=O)[O-])c4)c(Oc4cnc5[nH]ccc5c4)c3)CC2)=C(c2ccc(Cl)cc2)C1`: the GI50 was 2.26 µM in the experiment on TK-10 renal; 1.98 µM in the experiment on UACC-257 melanoma; 3.19 µM with OVCAR-5 ovarian; 2.91 µM with CAKI-1 renal; 2.31 µM in the experiment with OVCAR-3 ovarian; 1.41 µM in the experiment with SK-MEL-28 melanoma. The GI50 with SN12C renal is 2.82 µM; in the experiment on SNB-75 CNS, 3.71 µM; in the experiment on HL-60(TB) leukemia, 0.25 µM. Besides, the TGI in the experiment with TK-10 renal was 6.34 µM; in the experiment with UACC-257 melanoma, 4.94 µM; in the experiment on OVCAR-5 ovarian, 11.6 µM; in the experiment on CAKI-1 renal, 10.7 µM; in the experiment with OVCAR-3 ovarian, 5.44 µM; with SK-MEL-28 melanoma it was 6.79 µM. The results for the TGI with SN12C renal, in the experiment on SNB-75 CNS and with HL-60(TB) leukemia were 11.8 µM, 15.1 µM and 2.33 µM, respectively.
With `Cc1cc(C)c2c(c1C)CN1CN2Cc2c(C)c(C)cc(C)c21`, the TGI with TK-10 renal, in the experiment with OVCAR-5 ovarian, in the experiment with CAKI-1 renal, in the experiment on OVCAR-3 ovarian, in the experiment with SK-MEL-28 melanoma and with SN12C renal was > 100 µM each time. Moreover, the TGI in the experiment with EKVX NSCLC was > 100 µM; in the experiment on SNB-75 CNS, 58.1 µM; in the experiment with HL-60(TB) leukemia, 46.3 µM.
Take `CC(=O)[CH-]C(=O)c1ccccc1.CC(=O)[CH-]C(=O)c1ccccc1.[O-]Cc1cccs1.[O-]Cc1cccs1.[Ti+4]`: the GI50 is > 100 µM with UACC-257 melanoma; 38.2 µM in the experiment on OVCAR-5 ovarian; 71.6 µM with CAKI-1 renal; > 100 µM in the experiment on OVCAR-3 ovarian; 43.8 µM with SK-MEL-28 melanoma; 36.8 µM in the experiment on SN12C renal. The GI50 with EKVX NSCLC is 37.4 µM; in the experiment with SNB-75 CNS, 73.1 µM; in the experiment with HL-60(TB) leukemia, 4.26 µM. Further, the TGI with UACC-257 melanoma, in the experiment with OVCAR-5 ovarian, with CAKI-1 renal, in the experiment with OVCAR-3 ovarian, in the experiment on SK-MEL-28 melanoma and in the experiment on SN12C renal was > 100 µM throughout. Also, the TGI with EKVX NSCLC, in the experiment on SNB-75 CNS and in the experiment with HL-60(TB) leukemia was > 100 µM in each case.
Consider `O=C1/C(=C\c2ccccc2)CN(C(=O)c2ccccc2F)C/C1=C\c1ccccc1`, for which the GI50 was 2.33 µM with TK-10 renal; 2.15 µM in the experiment with UACC-257 melanoma; 2.16 µM with OVCAR-5 ovarian; 3.4 µM with CAKI-1 renal; 2.36 µM with OVCAR-3 ovarian; 2.08 µM in the experiment on SK-MEL-28 melanoma. Also, the values for the GI50 in the experiment with SN12C renal, in the experiment with SNB-75 CNS and with HL-60(TB) leukemia were 1.77 µM, 3.5 µM and 2.78 µM, respectively. Also, the TGI in the experiment with TK-10 renal amounted to 5.75 µM; in the experiment with UACC-257 melanoma, 4.79 µM; with OVCAR-5 ovarian, 5.38 µM; in the experiment on CAKI-1 renal, 12.8 µM; in the experiment on OVCAR-3 ovarian, 5.35 µM; with SK-MEL-28 melanoma it was 4.05 µM. For the same compound, the TGI in the experiment on SN12C renal worked out at 3.48 µM; in the experiment with SNB-75 CNS it was 14.5 µM; in the experiment on HL-60(TB) leukemia it was 7.36 µM.
As for `Cc1nc(N=C(N)N)nc2ccc3ccccc3c12`, the GI50 in the experiment on UACC-257 melanoma is 1.46 µM; in the experiment with OVCAR-5 ovarian, 2.29 µM; in the experiment on CAKI-1 renal, 2.5 µM; in the experiment with OVCAR-3 ovarian, 1.32 µM; in the experiment with SK-MEL-28 melanoma, 1.53 µM; in the experiment with SN12C renal, 0.49 µM. Further, the GI50 with SNB-75 CNS was 0.524 µM; in the experiment with HL-60(TB) leukemia it was 2.25 µM. The TGI was determined as 4.17 µM in the experiment with UACC-257 melanoma; 7.52 µM in the experiment on OVCAR-5 ovarian; 10.9 µM in the experiment on CAKI-1 renal; 3.77 µM with OVCAR-3 ovarian; 3.71 µM with SK-MEL-28 melanoma; 3.84 µM in the experiment with SN12C renal. Also, the TGI turned out to be 1.97 µM in the experiment with SNB-75 CNS and 5.41 µM with HL-60(TB) leukemia.
